The results in this text go back to ChEMBL document CHEMBL1201862, “PubChem BioAssay data set” (2004).

The structures appear in SMILES notation.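 Protocol summary: plate cells (96-well), add compound at 5 concentrations, incubate 48 h, interpolate endpoints linearly. GI50 marks 50% less growth.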 The source made the active and inactive calls. Rule as the data show it: active = GI50 up to about 1.1 µM and inactive = higher. Bounds are passed on as bounds.

Some test systems named below: MOLT-4; A549; HCT-15; SK-MEL-2; KM12; SK-OV-3; MCF7; HOP-62; RXF 393; NCI-H522; OVCAR-8; ACHN; SN12C; IGROV-1; SK-MEL-28; A498; HT-29; SF-295; SR.
Common to all, as to experiment: NCI-60 cell line screen, 48 h

Regarding `CN(C)CC1CC/C(=C\c2ccc(Cl)cc2)C1=O` (configuration not stated), the GI50 in the test with MOLT-4 is 0.561 µM (active); with A549, 20.4 µM (inactive); in the test on HCT-15, 3.18 µM; in the test on SK-MEL-2, 12 µM (inactive); in the test on KM12 it was 3.46 µM (inactive); with SK-OV-3 it was 15.7 µM (inactive). The GI50 is 1.87 µM (inactive) with MCF7; 22.4 µM (inactive) with HOP-62; 3.16 µM (inactive) in the test with RXF 393; 3.48 µM (inactive) with NCI-H522; 3.58 µM (inactive) in the test with OVCAR-8; 12.6 µM (inactive) in the test with ACHN. For the same compound, the GI50 with SN12C is 7.67 µM (inactive); in the test on IGROV-1 it was 14.6 µM (inactive); in the test on SK-MEL-28 it was 3.3 µM (inactive); in the test with A498, 13.5 µM (inactive); with HT-29, 5.71 µM (inactive); with SF-295 it was 17.2 µM (inactive).
Regarding `COc1ccc(-c2cn3c(nc4ccccc43)c(/C=C/c3cccs3)n2)cc1`, the GI50 with A549 is 55.6 µM (inactive); in the test on HCT-15 it was 26.7 µM; in the test with SK-MEL-2, 10.6 µM (inactive); in the test on KM12, 11.9 µM (inactive); with SK-OV-3, 75.2 µM (inactive); in the test on MCF7 it was 15 µM (inactive). In addition, the GI50 in the test on HOP-62 is 83 µM (inactive); in the test with RXF 393 it was > 100 µM (inactive); in the test on ACHN, > 100 µM (inactive); in the test with SN12C it was > 100 µM (inactive); in the test on SK-MEL-28 it was 80 µM (inactive); with SR, 2.65 µM (inactive). The GI50 with A498 was > 100 µM (inactive); in the test with HT-29 it was 29.8 µM (inactive).
Consider `NC1CC(Cl)c2c(Cl)sc(Cl)c21` (configuration not stated), for which the GI50 in the test on MOLT-4 was > 100 µM (inactive); with A549, > 100 µM (inactive); in the test on HCT-15 it was more than 100 µM; in the test on SK-MEL-2, > 100 µM (inactive); in the test with KM12 it was > 100 µM (inactive); with SK-OV-3, > 100 µM (inactive). Also, the GI50 in the test with MCF7 is > 100 µM (inactive); in the test on HOP-62, > 100 µM (inactive); in the test on RXF 393, 14.2 µM (inactive); in the test on NCI-H522 it was < 0.01 µM (active); in the test on OVCAR-8, > 100 µM (inactive); in the test with ACHN, > 100 µM (inactive). The GI50 with SN12C was > 100 µM (inactive); in the test on IGROV-1, > 100 µM (inactive); with SK-MEL-28 it was > 100 µM (inactive); in the test with SR, 61.8 µM (inactive); in the test on A498, > 100 µM (inactive); in the test with HT-29, > 100 µM (inactive). In the test with SF-295, the GI50 is > 100 µM (inactive).
Turning to `CCOC(=O)c1csc(CCCCCCc2nc(C(=O)OCC)cs2)n1`, the GI50 in the test with MOLT-4 was > 75 µM (inactive); in the test on A549, > 45.6 µM (inactive); in the test with HCT-15, more than 60.5 µM; in the test on SK-MEL-2 it was 97.5 µM (inactive); with KM12, > 100 µM (inactive); in the test on SK-OV-3, > 65.5 µM (inactive). Further, the GI50 in the test with HOP-62 was > 57.1 µM (inactive); in the test with RXF 393, 31.6 µM (inactive); in the test with NCI-H522, > 100 µM (inactive); with OVCAR-8, 31.8 µM (inactive); in the test with ACHN, > 84.9 µM (inactive); in the test on SN12C, > 82.6 µM (inactive). For the same compound, the GI50 is > 100 µM (inactive) in the test on IGROV-1; > 38.3 µM (inactive) in the test on SK-MEL-28; > 100 µM (inactive) with SR; > 100 µM (inactive) in the test on A498; > 70 µM (inactive) in the test on HT-29; 52.2 µM (inactive) in the test with SF-295.
Turning to `O=c1[nH]c(S)nc2c1sc(=S)n2-c1ccccc1`, the GI50 in the test with MOLT-4 was > 100 µM (inactive); with A549, > 100 µM (inactive); in the test on HCT-15, more than 100 µM; with SK-MEL-2, > 100 µM (inactive); in the test on KM12 it was > 100 µM (inactive); in the test on SK-OV-3, > 100 µM (inactive). In addition, the GI50 in the test on HOP-62, in the test with RXF 393, with NCI-H522, in the test with OVCAR-8, in the test with ACHN and with SN12C was > 100 µM (inactive) throughout. In addition, the GI50 in the test on IGROV-1, with SK-MEL-28, in the test on SR, in the test on A498, in the test on HT-29 and in the test on SF-295 was > 100 µM (inactive) in each case.
